Results reported in US11691980B2, “Liphagal analog and multi-targeted kinase inhibitor containing liphagal or analog thereof” (TOHOKU UNIVERSITY, priority 2017, dated 2023).

How the values were obtained:
Type in all cases: biochemical
[1] = target: PIK3α (PIK3CA/PIK3R1) (Homo sapiens, UniProt P42336); experiment: IC50 by mobility shift assay; conditions: Table 2, mobility shift assay; read-out: IC50 (μM), Kinase PIK3CA/PIK3RI
Experimental: The compounds obtained in Production Examples described above were each measured for its IC50 value for PIK3α (PIK3CA/PIK3R1) by mobility shift assay. The mobility shift assay is a method involving separating and quantifying a substrate and a phosphorylated substrate on the basis of mobility in a capillary. Each compound was mixed at various concentrations with an assay buffer (20 mM HEPES, 2 mM DTT, 25 μM sodium cholate, 75 mM NaCl, 20 μM cantharidine) together with 21 nM PI3K, 1,000 nM phosphatidyl inositol, 50 μM ATP, and 5 mM MgCl, and the mixture was subjected to a reaction at room temperature for 5 hours, followed by the mobility shift assay. The test was repeated twice. The enzymatic reaction was assessed on the basis of a product ratio (P/(P+S)) calculated from the height of a substrate peptide peak (S) and the height of a phosphorylated peptide peak (P). An inhibition rate was calculated from a signal obtained when each compound was added, with the average signal of a control containing all reaction components being defined as 0% inhibition and the average signal of a background (no enzyme added) being defined as 100% inhibition.
(§1) The compounds produced in Production Examples described above were each assessed for its inhibitory activity against CDK7, PIM2, and PI3K by mobility shift assay. In addition, a combination showing the highest inhibitory activity against each kinase is indicated by italics.

[2] = target: PIM2 (Homo sapiens, UniProt Q9P1W9); experiment: IC50 by mobility shift assay; conditions: for IC50: Table 2, mobility shift assay, read-out: IC50 (μM), Kinase PIM2; for inhibitory activity against PIM2: in words, Table 2
Description: as §1

[3] = target: CDK7/CycHMAT1 (Homo sapiens, UniProt P50613); experiment: IC50 by mobility shift assay; conditions: Table 2, mobility shift assay; read-out: IC50 (μM), Kinase CDK7/CycH/MAT1
Description: as §1

[4] = target: CDK6 (Homo sapiens, UniProt Q00534); experiment: IC50 by mobility shift assay; conditions: Table 4, inhibitory activity against CDK6, mobility shift assay; read-out: IC50 (μM), Kinase
Description: Next, the compounds produced in Production Examples described above were each assessed for its inhibitory activity against CDK6 by mobility shift assay. In addition, a combination showing the highest inhibitory activity is indicated by italics.

[5] = target: CDK4/CycD3 (Homo sapiens, UniProt P11802); experiment: IC50 by mobility shift assay; conditions: Table 3, CDK4, mobility shift assay; read-out: IC50 (μM), Kinase CDK4/CycD3
Description: Next, the compounds produced in Production Examples described above were each assessed for its inhibitory activity against CDK4 by mobility shift assay. In addition, a combination showing the highest inhibitory activity is indicated by italics.

[6] = target: PIK3CA/PIK3R1 (Homo sapiens, UniProt P42336); experiment: ADP-Glo Kinase Assay; conditions: FIG. 4
Experimental: CD-3 produced in the foregoing was used as a test substance, and was measured for its IC50 value for PIK3CA/PIK3R1 by ADP-Glo™ Kinase Assay. A specific procedure is as described below.
The test substance was dissolved in dimethyl sulfoxide (DMSO), and further diluted with DMSO to prepare a solution having a 100-fold concentration with respect to a Lest concentration. The solution was further diluted 25-fold with an assay buffer to prepare a test substance solution. A positive control substance was similarly treated to prepare a positive control substance solution.
1) 5 μL of a test substance solution having a 4-fold concentration, 5 μL of a substrate solution having a 4-fold concentration, 5 μL of an ATP solution having a 4-fold concentration, and 5 μL of a kinase/metal solution having a 4-fold concentration, which had been prepared with an assay buffer (50 mM MOPS, 1 mM DTT, pH 7.2), were mixed in wells of a 384 well black plate made of polystyrene, and the mixture was subjected to a reaction at room temperature for 1 hour. […]
4) The kinase reaction was assessed in terms of relative light unit (RLU). […]
An IC50 value was determined by approximating a plot of test substance concentration and inhibition rate to a 4-parameter logistic curve by a nonlinear least-squares method.

CDK7/CycHMAT1, sequence (P50613 whole entry): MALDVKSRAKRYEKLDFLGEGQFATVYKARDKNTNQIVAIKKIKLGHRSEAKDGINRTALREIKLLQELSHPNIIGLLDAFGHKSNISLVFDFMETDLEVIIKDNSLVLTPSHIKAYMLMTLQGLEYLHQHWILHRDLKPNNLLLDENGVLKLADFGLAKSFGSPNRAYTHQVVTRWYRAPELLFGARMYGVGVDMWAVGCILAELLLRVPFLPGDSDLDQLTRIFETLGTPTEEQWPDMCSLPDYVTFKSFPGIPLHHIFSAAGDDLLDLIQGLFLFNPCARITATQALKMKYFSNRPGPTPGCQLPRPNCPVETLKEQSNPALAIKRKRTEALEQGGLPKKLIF
CDK7/CycHMAT1, sequence (P51946 whole entry partner): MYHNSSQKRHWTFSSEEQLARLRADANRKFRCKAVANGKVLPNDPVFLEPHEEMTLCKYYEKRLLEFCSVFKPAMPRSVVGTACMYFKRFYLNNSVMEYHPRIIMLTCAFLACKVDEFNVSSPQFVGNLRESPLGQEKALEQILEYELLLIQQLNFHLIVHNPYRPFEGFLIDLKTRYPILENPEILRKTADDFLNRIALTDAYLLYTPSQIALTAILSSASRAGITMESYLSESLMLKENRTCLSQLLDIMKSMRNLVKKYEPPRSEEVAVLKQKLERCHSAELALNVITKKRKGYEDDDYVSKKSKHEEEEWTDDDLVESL
CDK7/CycHMAT1, sequence (P51948 whole entry partner): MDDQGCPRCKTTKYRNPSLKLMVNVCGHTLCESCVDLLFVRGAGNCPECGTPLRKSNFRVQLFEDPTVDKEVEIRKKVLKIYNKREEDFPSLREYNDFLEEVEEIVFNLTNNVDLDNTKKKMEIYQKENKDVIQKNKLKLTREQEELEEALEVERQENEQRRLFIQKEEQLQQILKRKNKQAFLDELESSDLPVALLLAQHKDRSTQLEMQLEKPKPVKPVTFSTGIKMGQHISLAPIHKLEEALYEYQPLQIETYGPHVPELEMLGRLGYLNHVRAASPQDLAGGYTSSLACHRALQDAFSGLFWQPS
CDK4/CycD3, sequence (P11802 whole entry): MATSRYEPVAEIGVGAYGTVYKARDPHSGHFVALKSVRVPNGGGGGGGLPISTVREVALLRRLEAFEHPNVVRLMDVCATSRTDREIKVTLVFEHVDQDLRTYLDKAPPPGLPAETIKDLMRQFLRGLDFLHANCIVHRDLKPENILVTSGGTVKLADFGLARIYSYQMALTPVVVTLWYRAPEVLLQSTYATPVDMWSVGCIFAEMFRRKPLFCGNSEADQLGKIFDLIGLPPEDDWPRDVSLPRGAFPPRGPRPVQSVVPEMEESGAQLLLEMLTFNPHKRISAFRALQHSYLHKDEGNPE
CDK4/CycD3, sequence (P30281 whole entry partner): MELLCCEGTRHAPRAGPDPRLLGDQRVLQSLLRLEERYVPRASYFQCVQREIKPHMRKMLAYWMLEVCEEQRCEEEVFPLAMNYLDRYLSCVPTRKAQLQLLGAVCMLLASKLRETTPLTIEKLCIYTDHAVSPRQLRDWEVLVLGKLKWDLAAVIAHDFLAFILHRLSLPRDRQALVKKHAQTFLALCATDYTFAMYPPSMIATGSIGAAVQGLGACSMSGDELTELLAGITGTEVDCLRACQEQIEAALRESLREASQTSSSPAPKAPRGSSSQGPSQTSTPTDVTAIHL
CDK6, sequence (Q00534 whole entry): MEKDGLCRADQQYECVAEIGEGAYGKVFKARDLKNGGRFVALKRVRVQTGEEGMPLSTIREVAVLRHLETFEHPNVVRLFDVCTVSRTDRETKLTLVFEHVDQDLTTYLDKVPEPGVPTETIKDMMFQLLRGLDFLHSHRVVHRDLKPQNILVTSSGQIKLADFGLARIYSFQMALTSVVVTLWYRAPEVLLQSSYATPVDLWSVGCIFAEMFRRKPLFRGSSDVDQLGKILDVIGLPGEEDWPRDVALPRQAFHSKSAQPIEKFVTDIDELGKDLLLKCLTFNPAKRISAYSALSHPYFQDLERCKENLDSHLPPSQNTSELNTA
PIM2, sequence (Q9P1W9 whole entry): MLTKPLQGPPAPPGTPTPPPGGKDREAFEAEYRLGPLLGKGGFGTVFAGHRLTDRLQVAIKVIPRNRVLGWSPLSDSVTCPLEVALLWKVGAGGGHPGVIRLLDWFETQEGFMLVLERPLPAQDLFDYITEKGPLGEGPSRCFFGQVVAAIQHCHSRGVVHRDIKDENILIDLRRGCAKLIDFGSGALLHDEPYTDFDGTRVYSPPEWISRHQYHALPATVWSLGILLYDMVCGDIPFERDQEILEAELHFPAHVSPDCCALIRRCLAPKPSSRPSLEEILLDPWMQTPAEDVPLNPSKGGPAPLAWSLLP
PIK3α (PIK3CA/PIK3R1), sequence (P42336 whole entry): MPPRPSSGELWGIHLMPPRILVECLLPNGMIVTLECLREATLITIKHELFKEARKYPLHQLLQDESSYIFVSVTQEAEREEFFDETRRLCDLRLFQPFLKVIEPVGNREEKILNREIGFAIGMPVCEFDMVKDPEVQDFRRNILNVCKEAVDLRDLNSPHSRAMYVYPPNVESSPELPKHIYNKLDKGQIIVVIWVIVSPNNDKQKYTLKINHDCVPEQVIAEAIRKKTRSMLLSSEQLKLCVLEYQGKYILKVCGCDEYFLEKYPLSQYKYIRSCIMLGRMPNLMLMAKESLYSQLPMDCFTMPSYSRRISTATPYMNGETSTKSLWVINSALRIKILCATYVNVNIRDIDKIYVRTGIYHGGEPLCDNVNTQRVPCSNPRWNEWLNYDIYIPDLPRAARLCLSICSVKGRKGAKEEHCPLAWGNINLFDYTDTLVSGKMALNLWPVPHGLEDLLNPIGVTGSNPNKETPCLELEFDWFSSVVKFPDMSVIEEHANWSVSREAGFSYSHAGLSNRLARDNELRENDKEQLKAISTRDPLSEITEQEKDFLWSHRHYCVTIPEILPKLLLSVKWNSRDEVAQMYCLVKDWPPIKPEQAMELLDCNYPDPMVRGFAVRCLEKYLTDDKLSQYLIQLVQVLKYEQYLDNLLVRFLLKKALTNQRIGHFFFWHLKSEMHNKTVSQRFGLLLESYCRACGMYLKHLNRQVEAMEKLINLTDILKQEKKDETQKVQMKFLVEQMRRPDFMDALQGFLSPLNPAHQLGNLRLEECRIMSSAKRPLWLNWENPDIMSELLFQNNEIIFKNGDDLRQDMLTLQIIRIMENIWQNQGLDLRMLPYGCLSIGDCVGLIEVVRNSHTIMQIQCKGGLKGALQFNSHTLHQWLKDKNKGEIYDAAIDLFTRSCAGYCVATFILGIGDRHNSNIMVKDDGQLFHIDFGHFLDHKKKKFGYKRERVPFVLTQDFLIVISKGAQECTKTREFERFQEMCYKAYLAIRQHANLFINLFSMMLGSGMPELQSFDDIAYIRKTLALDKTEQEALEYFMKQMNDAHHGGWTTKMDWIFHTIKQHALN
PIK3α (PIK3CA/PIK3R1), sequence (P27986 whole entry partner): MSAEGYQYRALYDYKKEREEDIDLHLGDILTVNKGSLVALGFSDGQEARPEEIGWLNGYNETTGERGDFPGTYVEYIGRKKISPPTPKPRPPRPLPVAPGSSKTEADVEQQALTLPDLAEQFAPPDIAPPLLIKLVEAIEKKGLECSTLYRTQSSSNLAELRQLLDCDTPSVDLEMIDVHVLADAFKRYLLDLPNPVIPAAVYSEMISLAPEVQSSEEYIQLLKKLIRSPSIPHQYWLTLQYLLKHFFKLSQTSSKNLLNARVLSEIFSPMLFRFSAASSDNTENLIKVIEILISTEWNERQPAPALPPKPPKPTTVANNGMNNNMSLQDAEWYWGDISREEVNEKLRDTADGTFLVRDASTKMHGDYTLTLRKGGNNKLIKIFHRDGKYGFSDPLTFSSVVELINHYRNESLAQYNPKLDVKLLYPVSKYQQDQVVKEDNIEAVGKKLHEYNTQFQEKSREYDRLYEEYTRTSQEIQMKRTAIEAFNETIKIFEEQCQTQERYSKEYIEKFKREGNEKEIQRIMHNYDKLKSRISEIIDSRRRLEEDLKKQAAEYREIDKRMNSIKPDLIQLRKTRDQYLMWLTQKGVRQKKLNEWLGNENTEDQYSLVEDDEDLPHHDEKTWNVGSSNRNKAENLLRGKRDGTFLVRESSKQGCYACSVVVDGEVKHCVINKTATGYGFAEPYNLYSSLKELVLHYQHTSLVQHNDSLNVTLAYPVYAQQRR
PIK3CA/PIK3R1, sequence (P42336 whole entry): as the sequence (P42336 whole entry) above
PIK3CA/PIK3R1, sequence (P27986 whole entry partner): as the sequence (P27986 whole entry partner) above

Q: `C[C@H]1CC[C@H]2C(C)(C)CCC[C@]2(C)c2c1oc1c(C=O)c3c(cc21)OCO3` [LG-4] was tested. Which IC50 [1] did it give?
A: 4.43 µM

Q: What about the IC50 [2] of the same compound?
A: 13.8 µM

Q: What about the IC50 [3] of the same compound?
A: 191 µM

Q: `C[C@H]1CC[C@H]2C(C)(C)CCC[C@]2(C)/C1=C/c1cc(O)c(O)c(C=O)c1O` [SD-2, 8-epi-siphonodictyal B] was tested. Which IC50 [1] did it give?
A: 3.26 µM

Q: And the IC50 [4]?
A: 25.6 µM

Q: What about the IC50 [2] of the same compound?
A: 2.79 µM

Q: What about the “inhibitory activity against PIM2” value [2] of the same compound?
A: potent inhibitory actions

Q: And the IC50 [3]?
A: 4.24 µM

Q: And the IC50 [5]?
A: 22.4 µM

Q: `C[C@H]1CC[C@H]2C(C)(C)CCC[C@]2(C)c2c1oc1c(C=O)c(O)c(O)cc21` [LG-2] was tested. Which IC50 [1] did it give?
A: 1.72 µM

Q: And the IC50 [2]?
A: 2.81 µM

Q: What about the “inhibitory activity against PIM2” value [2] of the same compound?
A: potent inhibitory actions

Q: And the IC50 [3]?
A: 9.08 µM

Q: What about the IC50 [5] of the same compound?
A: 125 µM

Q: Which IC50 [6] does the source give for `C[C@H]1CC[C@H]2C(C)(C)CCCC2(C)[C@]12C=C1C=C(O)C(=O)C(C=O)=C1O2` (stereo partly drawn) [CD-3, 8-epi-corallidictyal B] here?
A: 8.2 µM

Q: What does the source list for `C[C@@H]1CC[C@H]2C(C)(C)CCC[C@]2(C)/C1=C/c1cc(O)c(O)c(C=O)c1O` [SD-1, siphonodictyal B]?
A: IC50 [1]: 2.62 µM; IC50 [4]: 69.1 µM; IC50 [2]: 6.99 µM; IC50 [3]: 13.7 µM; IC50 [5]: 32.9 µM

Q: `C[C@@H]1CC[C@H]2C(C)(C)CCC[C@]2(C)c2c1oc1c(C=O)c3c(cc21)OCO3` [LG-3] was tested. Which IC50 [1] did it give?
A: 4.26 µM

Q: And the IC50 [4]?
A: 64.1 µM

Q: And the IC50 [2]?
A: 18 µM

Q: What about the IC50 [3] of the same compound?
A: 16.3 µM

Q: What about the IC50 [5] of the same compound?
A: 47.8 µM
